Measurements as given in US20100041669A1, “4-(HETEROCYCLYL)ALKYL-N-(ARYLSULFONYL)INDOLE COMPOUNDS AND THEIR USE AS 5-HT6 LIGANDS” (priority 2007, published 2010).
Where a name gives a salt, the structure may show the parent alone.

molecular target: T1, human 5-HT6 receptor (Homo sapiens, UniProt P50406); assay: Binding assay for human 5-HT6 receptor ([3H]LSD radioligand); details: human recombinant receptor, [3H]LSD 1.5 nM, 60 minutes at 37° C.; read-out: Radiogland binding data at 5-HT6 R (h) Ki
T1 construct: expressed in transfected cells; host or cells: HEK293
T1 sequence (P50406 whole entry): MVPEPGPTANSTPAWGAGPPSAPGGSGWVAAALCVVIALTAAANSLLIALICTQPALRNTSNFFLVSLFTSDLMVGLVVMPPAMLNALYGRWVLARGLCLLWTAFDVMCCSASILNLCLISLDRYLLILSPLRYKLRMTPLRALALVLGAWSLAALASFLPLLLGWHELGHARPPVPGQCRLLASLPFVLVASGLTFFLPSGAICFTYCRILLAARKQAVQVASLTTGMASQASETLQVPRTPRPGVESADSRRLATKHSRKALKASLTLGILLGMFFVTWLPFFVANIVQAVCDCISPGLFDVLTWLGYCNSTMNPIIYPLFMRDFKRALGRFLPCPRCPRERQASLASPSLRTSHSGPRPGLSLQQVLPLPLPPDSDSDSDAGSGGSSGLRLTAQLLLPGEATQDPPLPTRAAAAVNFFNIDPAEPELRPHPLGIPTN
Procedure: Binding Assay for Human 5-HT6 Receptor
Receptor source: Human recombinant expressed in FEK293 cells
Radioligand: [^3H]LSD (60-80 Ci/mmol)
Final ligand concentration —[1.5 nM]
Non-specific determinant: Methiothepin mesylate —[0.1 μM]
Reference compound: Methiothepin mesylate
Positive control: Methiothepin mesylate
Reactions were carried out in 50 μM TRIS-HCl (pH 7.4) containing 10 μM MgCl2, 0.5 mM EDTA for 60 minutes at 37° C. The reaction was terminated by rapid vacuum filtration onto glass fiber filters. Radioactivity trapped onto the filters was determined and compared to control values in order to ascertain any interactions of test compound(s) with the cloned serotonin 5-HT6 binding site.

| SMILES | Ki [nM] |
| --- | --- |
| CN1CCN(Cc2cccc3c2c(Cl)cn3S(=O)(=O)c2ccccc2Br)CC1 [Compound 30, 3-Chloro-1-(2-bromobenzenesulfonyl)-4-(4-methylpiperazin-1-ylmethyl)-1H-indole] | 90.7 |
| O=S(=O)(c1ccccc1)n1ccc2c(CN3CCNCC3)cccc21 [Compound 37, 1-Benzenesulfonyl-4-(piperazin-1-ylmethyl)-1H-indole dihydrochloride] | 7.84 |
| CN1CCN(Cc2cccc3c2ccn3S(=O)(=O)c2ccc(F)cc2)CC1 [Compound 7, 1-(4-Fluorobenzenesulfonyl)-4-(4-methylpiperazin-1-ylmethyl)-1H-indole] | 9.89 |
| CN1CCN(Cc2cccc3c2c(Br)cn3S(=O)(=O)c2cccc(Cl)c2)CC1 [Compound 24, 3-Bromo-1-(3-chlorobenzenesulfonyl)-4-(4-methylpiperazin-1-ylmethyl)-1H-indole] | 75.3 |
| CN1CCN(Cc2cccc3c2ccn3S(=O)(=O)c2cccc(Cl)c2)CC1 [Compound 41, 1-(3-chlorobenzenesulfonyl)-4-(4-methylpiperazin-1-ylmethyl)-1H-indole] | 13.1 |
| CN1CCN(Cc2cccc3c2ccn3S(=O)(=O)c2cccc3ccccc23)CC1 [Compound 39, 1-Naphthylsulfonyl-4-(4-methylpiperazin-1-ylmethyl)-1H-indole] | 4.82 |
| Cc1ccc(S(=O)(=O)n2ccc3c(CN4CCN(C)CC4)cccc32)cc1 [Compound 5, 1-(4-Methylbenzenesulfonyl)-4-(4-methylpiperazin-1-ylmethyl)-1H-indole] | 7.92 |
| CN1CCN(Cc2cccc3c2ccn3S(=O)(=O)c2ccccc2)CC1 [Compound 1, 1-Benzenesulfonyl-4-(4-methylpiperazin-1-ylmethyl)-1H-indole] | 6.51 |
| CN1CCN(Cc2cccc3c2ccn3S(=O)(=O)c2ccccc2Br)CC1 [Compound 6, 1-(2-Bromobenzenesulfonyl)-4-(4-methylpiperazin-1-ylmethyl)-1H-indole] | 1.43 |
| CC(C)c1ccc(S(=O)(=O)n2ccc3c(CN4CCN(C)CC4)cccc32)cc1 [Compound 4, 1-[4-(1-Methylethyl)benzenesulfonyl]-4-(4-methylpiperazin-1-ylmethyl)-1H-indole] | 11.1 |
| CN1CCN(Cc2cccc3c2c(Br)cn3S(=O)(=O)c2ccccc2)CC1 [Compound 18, 1-Benzenesulfonyl-3-bromo-4-(4-methylpiperazin-1-ylmethyl)-1H-indole] | 30.2 |
| CN1CCN(Cc2cccc3c2c(Cl)cn3S(=O)(=O)c2ccccc2)CC1 [Compound 27, 3-Chloro-1-benzenesulfonyl-4-(4-methylpiperazin-1-ylmethyl)-1H-indole] | 53.6 |
| CC(C)c1ccc(S(=O)(=O)n2cc(Cl)c3c(CN4CCN(C)CC4)cccc32)cc1 [Compound 28, 3-Chloro-1-[4-(1-methylethyl)benzenesulfonyl]-4-(4-methylpiperazin-1-ylmethyl)-1H-indole] | 99.7 |
| COc1ccc(S(=O)(=O)n2ccc3c(CN4CCN(C)CC4)cccc32)cc1 [Compound 8, 1-(4-Methoxybenzenesulfonyl)-4-(4-methylpiperazin-1-ylmethyl)-1H-indole] | 29.1 |
| Cc1ccc(S(=O)(=O)n2cc(Cl)c3c(CN4CCN(C)CC4)cccc32)cc1 [Compound 29, 3-Chloro-1-(4-methylbenzenesulfonyl)-4-(4-methylpiperazin-1-ylmethyl)-1H-indole] | 222 |
| CN1CCN(Cc2cccc3c2c(Br)cn3S(=O)(=O)c2cccc3ccccc23)CC1 [Compound 25, 3-Bromo-1-(1-naphthylsulfonyl)-4-(4-methylpiperazin-1-ylmethyl)-1H-indole] | 97.6 |
| CN1CCN(Cc2cccc3c2c(Cl)cn3S(=O)(=O)c2cccc3ccccc23)CC1 [Compound 34, 3-Chloro-1-(1-naphthylsulfonyl)-4-(4-methylpiperazin-1-ylmethyl)-1H-indole] | 165 |
| CN1CCN(Cc2cccc3c2c(Cl)cn3S(=O)(=O)c2cccc(Cl)c2)CC1 [Compound 33, 3-Chloro-1-(3-chlorobenzenesulfonyl)-4-(4-methylpiperazin-1-ylmethyl)-1H-indole] | 27.1 |
| CC(C)c1ccc(S(=O)(=O)n2cc(Br)c3c(CN4CCN(C)CC4)cccc32)cc1 [Compound 20, 3-Bromo-1-[4-(1-Methylethyl)benzenesulfonyl]-4-(4-methylpiperazin-1-ylmethyl)-1H-indole] | 278 |
| CN1CCN(Cc2cccc3c2c(Br)cn3S(=O)(=O)c2ccc(F)cc2)CC1 [Compound 22, 3-Bromo-1-(4-fluorobenzenesulfonyl)-4-(4-methylpiperazin-1-ylmethyl)-1H-indole] | 122 |
| O=S(=O)(c1ccccc1Br)n1ccc2c(CN3CCNCC3)cccc21 [Compound 36, 1-(2-Bromobenzenesulfonyl)-4-(piperazin-1-ylmethyl)-1H-indole dihydrochloride] | 0.94 |
| CN1CCN(Cc2cccc3c2ccn3S(=O)(=O)c2ccc(Br)cc2)CC1 [Compound 2, 1-(4-Bromobenzenesulfonyl)-4-(4-methylpiperazin-1-ylmethyl)-1H-indole] | 23.4 |
| Cc1ccc(S(=O)(=O)n2ccc3c(CN4CCNCC4)cccc32)cc1 [Compound 38, 1-(4-Methylbenzenesulfonyl-4-(piperazin-1-ylmethyl)-1H-indoledihydrochloride] | 10.7 |
| COc1ccc(S(=O)(=O)n2ccc3c(CN4CCN(C)CC4)cccc32)c(Br)c1 [Compound 3, 1-(2-Bromo-4-methoxybenzenesulfonyl)-4-(4-methylpiperazin-1-ylmethyl)-1H-indole] | 8.58 |

system: 5-HT6 receptor; assay: not given; details: literature; cited from earlier work

| SMILES | affinity for the 5-HT6 receptor |
| --- | --- |
| CN(C)CCC=C1c2ccccc2CCc2ccccc21 [amitriptyline] | high affinity |
| CN1CCN2c3ccccc3Cc3ccccc3C2C1 (stereo not drawn) [mianserin] | high affinity |

system: not given; assay: not given; details: Pouzet et al. 2002; cited from earlier work

| SMILES | activity in animal tests related to positive or negative symptoms of schizophrenia |
| --- | --- |
| COc1ccc(NS(=O)(=O)c2sc3ccc(Cl)cc3c2C)cc1N1CCNCC1 [SB-271046, 5-Chloro-N-(4-methoxy-3-piperazin-1-ylphenyl)-3-methyl-2-benzothiophenesulfonamide] | inactive |
